Legend:
[1] = Inhibition of PARP1 in human Jurkat cells assessed as reduction of cell viability after 96 hrs by MTS assay
[2] = Inhibition of PARP1 in human Jurkat cells assessed as reduction of cell viability after 96 hrs by MTS assay in presence of 100 uM of temozolomide

SMILES	EC50 [1]	EC50 [2]
CCOc1cc(CN2CCN(c3ccc(C(=O)NC4CC4)cc3C)CC2)cc2c1OC(C)C(=O)N2 (configuration not stated)	100 µM	0.02 µM
CCNC(=O)c1ccc(N2CCN(Cc3cc4c(c(OCC)c3)OC(C)C(=O)N4)CC2)c(C)c1 (configuration not stated)	100 µM	0.02 µM
CCOc1cc(CN2CCN(c3ccc(C(=O)NC)cc3C)CC2)cc2c1OC(C)C(=O)N2 (configuration not stated)	26 µM	0.02 µM
COc1cc(CN2CCN(c3ccc(C(=O)NC4CC4)cc3C)CC2)cc2c1OC(C)C(=O)N2 (configuration not stated)	77 µM	0.02 µM
CCNC(=O)c1ccc(N2CCN(Cc3cc4c(c(OC)c3)OC(C)C(=O)N4)CC2)c(C)c1 (configuration not stated)	44 µM	0.01 µM
CNC(=O)c1ccc(N2CCN(Cc3cc4c(c(OC)c3)OC(C)C(=O)N4)CC2)c(C)c1 (configuration not stated)	100 µM	0.06 µM
Cc1cc(C(=O)NC2CC2)ccc1N1CCN(Cc2cc(C)c3c(c2)NC(=O)C(C)O3)CC1 (configuration not stated)	100 µM	18 µM
CCNC(=O)c1ccc(N2CCN(Cc3cc(C)c4c(c3)NC(=O)C(C)O4)CC2)c(C)c1 (configuration not stated)	55 µM	9 µM
CNC(=O)c1ccc(N2CCN(Cc3cc(C)c4c(c3)NC(=O)C(C)O4)CC2)c(C)c1 (configuration not stated)	78 µM	9 µM
CCNC(=O)c1ccc(N2CCN(Cc3cc(C)c4c(c3)NC(=O)C(C)O4)CC2)cc1 (configuration not stated)	94 µM	9 µM
CNC(=O)c1ccc(N2CCN(Cc3cc(C)c4c(c3)NC(=O)C(C)O4)CC2)cc1 (configuration not stated)	75 µM	11 µM
CCNC(=O)c1ccc(N2CCN(Cc3ccc4c(c3)NC(=O)C(C)O4)CC2)c(Cl)c1 (configuration not stated)	100 µM	4 µM
CCNC(=O)c1ccc(N2CCN(Cc3ccc4c(c3)NC(=O)C(C)O4)CC2)cc1 (configuration not stated)	42 µM	15 µM
CNC(=O)c1ccc(N2CCN(Cc3ccc4c(c3)NC(=O)C(C)O4)CC2)cc1 (configuration not stated)	14 µM	15 µM
Cc1cc(CN2CCN(c3ccc(C(=O)NC4CC4)cc3Cl)CC2)cc2c1OC(C)C(=O)N2 (configuration not stated)	43 µM	0.01 µM
CCNC(=O)c1ccc(N2CCN(Cc3cc(C)c4c(c3)NC(=O)C(C)O4)CC2)c(Cl)c1 (configuration not stated)	47 µM	14 µM
CNC(=O)c1ccc(N2CCN(Cc3cc(C)c4c(c3)NC(=O)C(C)O4)CC2)c(Cl)c1 (configuration not stated)	45 µM	14 µM
COc1cc(CN2CCN(c3ccc(C(=O)NC4CC4)cc3)CC2)cc2c1OC(C)C(=O)N2 (configuration not stated)	162 µM	16 µM
CCNC(=O)c1ccc(N2CCN(Cc3cc4c(c(OC)c3)OC(C)C(=O)N4)CC2)cc1 (configuration not stated)	151 µM	16 µM
CNC(=O)c1ccc(N2CCN(Cc3cc4c(c(OC)c3)OC(C)C(=O)N4)CC2)cc1 (configuration not stated)	251 µM	27 µM
Cc1cc(CN2CCN(c3ccc(C(=O)NC4CC4)cc3)CC2)cc2c1OC(C)C(=O)N2 (configuration not stated)	100 µM	5 µM

From BindingDB's records for doi:10.1016/j.bmcl.2013.06.055 (Takeda California, 2013)
